Reference: patent US20240010606A1, “FUMARATE DERIVATIVES AND THEIR MEDICAL USE” (Sitryx Therapeutics Limited, priority 2020, published 2024)

Legend:
[1] = system: IL-1β; test: THP-1 AlphaLISA IL-1β cytokine assay; type: cell-based; conditions: Homo sapiens, differentiated THP-1 cells
Procedure, shortened: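 THP-1 cells differentiated 72 h with PMA, pre-incubated 30 min with compounds, stimulated 24 h with LPS, then 1 h with nigericin, all at 37 °C. Supernatant cytokine measured by AlphaLISA; % inhibition normalised to ±LPS controls and IC50 taken from concentration-response curves.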

[2] = system: IL-6; test: THP-1 AlphaLISA IL-6 cytokine assay; type: cell-based; conditions: Homo sapiens
Procedure: Biological Example 1—THP-1 AlphaLISA IL-1β and IL-6 Cytokine Assay Measuring Inhibitory Effects on IL-1, and IL-6 Cytokine Output from THP-1s The cytokine inhibition profiles of compounds of formula (I) were determined in a differentiated THP-1 cell assay. All assays were performed in RPMI-1640 growth medium (Gibco), supplemented with 10% fetal bovine serum (FBS; Gibco), 1% penicillin-streptomycin and 1% sodium pyruvate unless specified otherwise. The IL-1β and IL-6 cytokine inhibition assays were each run in a background of differentiated THP-1 cells as described below. All reagents described were from Sigma-Aldrich unless specified otherwise. Compounds were prepared as 10 mM DMSO stocks. THP-1 cells were expanded as a suspension up to 80% confluence in appropriate growth medium. Cells were harvested, suspended, and treated with an appropriate concentration of phorbol 12-myristate 13-acetate (PMA) over a 72 hr period (37° C./5% CO2). Following 72 hrs of THP-1 cell incubation, cellular medium was removed and replaced with fresh growth media containing 1% of FBS. Working concentrations of compounds were prepared separately in 10% FBS treated growth medium and pre-incubated with the cells for 30 minutes (37° C./5% CO2). Following the 30 minute compound pre-incubation, THP-1s were treated with an appropriate concentration of LPS and the THP-1s were subsequently incubated for a 24 hr period (37° C./5% CO2). An appropriate final concentration of Nigericin was then dispensed into the THP-1 plates and incubated for 1 hour (37° C./5% CO2) before THP-1 supernatants were harvested and collected in separate polypropylene 96-well holding plates. Reagents from each of the IL-1β and IL-6 commercial kits (Perkin Elmer) were prepared and run according to the manufacturer's instructions. Subsequently, fluorescence signal detection in a microplate reader was measured (EnVision® Multilabel Reader, Perkin Elmer). Percentage inhibition was calculated per cytokine by normalizing the sample data to the high and low controls used within each plate (+/−LPS respectively). Percentage inhibition was then plotted against compound concentration and the 50% inhibitory concentration (IC50) was determined from the resultant concentration-response curve.

[3] = system: NRF2; test: NRF2 activation assay (DiscoverX PathHunter NRF2 translocation kit, U2OS cells); type: cell-based
Procedure, shortened: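 PathHunter U2OS cells, grown 24 h at 37 °C/5% CO2, treated 6 h with compound; NRF2 nuclear translocation read as enzyme-fragment-complementation chemiluminescence. Activation normalised to dimethyl fumarate high and untreated low controls; EC50 from concentration-response curve.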

[4] = Hepatocyte stability assay, human; type: in vitro ADME; conditions: cryopreserved hepatocytes, 10 μM compound
Procedure, shortened: (§1)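 Cryopreserved hepatocytes (viability >70%) at 0.5×10^6 cells/mL in Leibovitz buffer, preincubated 10 min at 37 °C, then compound at 10 μM (0.1% DMSO) in duplicate; buffer-only incubations as control. Samples at 0-60 min quenched in acetonitrile, analysed by LC-MS/MS; half-life and CLint (μL min^−1 10^−6 cells) from ln % remaining versus time.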

[5] = system: hepatocytes; test: Hepatocyte stability assay, human; type: in vitro ADME; conditions: 10 μM compound
Procedure, shortened: as §1

[6] = Hepatocyte stability assay, mouse; type: in vitro ADME; conditions: mouse, cryopreserved hepatocytes, 10 μM compound
Procedure, shortened: as §1

[7] = system: hepatocytes; test: Hepatocyte stability assay, mouse; type: in vitro ADME; conditions: 10 μM compound
Procedure, shortened: as §1

[8] = THP-1, differentiated THP-1 cells, LPS then Nigericin, Table 1
[9] = +GSH, normalised to dimethyl fumarate high control, Table 3
[10] = −GSH, normalised to dimethyl fumarate high control, Table 3
[11] = Table 2, compounds of formula (II)
[12] = +GSH, Table 4, compounds of formula (II)
[13] = −GSH, Table 4, compounds of formula (II)
[14] = THP-1, differentiated THP-1 cells, Table 2, compounds of formula (II)

Row | Structure (SMILES) | IC50 ([1]; LPS then Nigericin, Table 1) [µM] | IC50 [2, 8] [µM] | EC50 ([3]; +GSH, Table 3) [µM] | NRF2 activation Emax [3, 9] | EC50 ([3]; −GSH, Table 3) [µM] | NRF2 activation Emax [3, 10] | half-life at 10 μM ([4]; Table 5, read-out: T½) [min] | CIint ([5]; Table 5) | half-life at 10 μM ([6]; Table 5, read-out: T½) [min] | CIint ([7]; Table 5) | IC50 [1, 11] [µM] | EC50 [3, 12] [µM] | NRF2 activation Emax [3, 12] | EC50 [3, 13] [µM] | NRF2 activation Emax [3, 13] | half-life at 10 μM ([4]; Table 6, read-out: T½) [min] | CIint ([5]; Table 6) | half-life at 10 μM ([6]; Table 6, read-out: T½) [min] | CIint ([7]; Table 6) | IC50 [2, 14] [µM] | also measured
1 | O=C(O)COC(=O)/C=C/C(=O)OC1CCCCCCC1 [Example 1, (E)-2-((4-(cyclooctyloxy)-4-oxobut-2-enoyl)oxy)acetic acid] | 2.5 to 6.1 | < 2.5 | 6 to 20 | ++ (++ means 100-149) | < 2 | ++++ (++++ means 200-250%) | 30 to 100 | ++++ (++++ means <50) | < 5 | + (+ means >277) |  |  |  |  |  |  |  |  |  |  | 
2 | O=C(O)COC(=O)/C=C/C(=O)OC1CCCCC1 [Example 2, (E)-2-((4-(cyclohexyloxy)-4-oxobut-2-enoyl)oxy)acetic acid] | 9.3 to 14.3 | 6.2 to 9.2 | 20 to 100 | + (+ means >17.1-99) | 2.1 to 6 | ++++ (++++ means 200-250%) | 30 to 100 | ++++ (++++ means <50) | 5 to 10 | ++ (++ means 200-277) |  |  |  |  |  |  |  |  |  |  | 
3 | O=C(O)CCOC(=O)/C=C/C(=O)OC1CCCCCCC1 [Example 3, (E)-3-((4-(Cyclooctyloxy)-4-oxobut-2-enoyl)oxy)propanoic acid] | < 2.5 | < 2.5 | 20 to 100 | ++ (++ means 100-149) | < 2 | ++++ (++++ means 200-250%) | 5 to 29 | +++ (+++ means 50-149) | < 5 | + (+ means >277) |  |  |  |  |  |  |  |  |  |  | 
4 | O=C(O)CCOC(=O)/C=C/C(=O)OC1CCCCC1 [Example 4, (E)-3-((4-(cyclohexyloxy)-4-oxobut-2-enoyl)oxy)propanoic acid] | 2.5 to 6.1 | < 2.5 | 6 to 20 | + (+ means >17.1-99) | 2.1 to 6 | +++ (+++ means 150-199%) | 5 to 29 | +++ (+++ means 50-149) | < 5 | + (+ means >277) |  |  |  |  |  |  |  |  |  |  | IC50 ([2]; THP-1, from repeated experiments, Table 1): 2.5 to 6.1 µM
5 | O=C(O)COC(=O)/C=C/C(=O)OC1(c2ccc(C(F)(F)F)cc2)CCC1 [Example 15, (E)-2-((4-oxo-4-(1-(4-(trifluoromethyl)phenyl)cyclobutoxy)but-2-enoyl)oxy) acetic acid] | < 2.5 | 2.5 to 6.1 | > 100 | + (+ means >17.1-99) | 2.1 to 6 | +++ (+++ means 150-199%) | 5 to 29 | +++ (+++ means 50-149) | < 5 | + (+ means >277) |  |  |  |  |  |  |  |  |  |  | 
6 | O=C(O)/C=C/C(=O)OC1(c2ccc(C(F)(F)F)cc2)CCC1 [Intermediate 3, (E)-4-oxo-4-(1-(4-(trifluoromethyl)phenyl)cyclobutoxy)but-2-enoic acid] |  |  |  |  |  |  |  |  |  |  | < 6 | < 23 | +++ (+++ means >114-150%) | < 23 | +++ (+++ means >114-150%) | > 100 | ++++ (++++ means 5-15) | 30 to 100 | +++ (+++ means >15-30) |  | IC50 ([2]; differentiated THP-1 cells, Table 2, compounds of formula (II)): < 6 µM
7 | O=C(O)/C=C/C(=O)OC1(c2cccc(C(F)(F)F)c2)CCC1 [Intermediate 10, (E)-4-oxo-4-(1-(3-(trifluoromethyl)phenyl)cyclobutoxy)but-2-enoic acid] |  |  |  |  |  |  |  |  |  |  | 6 to 30 | < 23 | +++ (+++ means >114-150%) | < 23 | +++ (+++ means >114-150%) | 5 to 29 | ++ (++ means >30-110) | 30 to 100 | ++ (++ means >30-110) | 6 to 30 | 
8 | O=C(O)/C=C/C(=O)OC1(c2ccc(Br)cc2)CCC1 [Intermediate 12, (E)-4-(1-(4-bromophenyl)cyclobutoxy)-4-oxobut-2-enoic acid] |  |  |  |  |  |  |  |  |  |  | 6 to 30 | < 23 | ++ (++ means >87-114%) | < 23 | ++ (++ means >87-114%) | 30 to 100 | +++ (+++ means >15-30) | 30 to 100 | +++ (+++ means >15-30) | 6 to 30 | 
9 | O=C(O)/C=C/C(=O)OC1(c2cc(Cl)cc(Cl)c2)CCC1 [Intermediate 14, (E)-4-(1-(3,5-dichlorophenyl)cyclobutoxy)-4-oxobut-2-enoic acid] |  |  |  |  |  |  |  |  |  |  | 6 to 30 | < 23 | ++++ (++++ means >150%) | < 23 | ++++ (++++ means >150%) | > 100 | ++++ (++++ means 5-15) | 5 to 29 | ++ (++ means >30-110) | < 6 | 
10 | O=C(O)/C=C/C(=O)OC1(c2ccc(C(F)(F)F)c(F)c2)CCC1 [Intermediate 16, (E)-4-(1-(3-fluoro-4-(trifluoromethyl)phenyl)cyclobutoxy)-4-oxobut-2-enoic acid] |  |  |  |  |  |  |  |  |  |  | < 6 | < 23 | +++ (+++ means >114-150%) | < 23 | ++++ (++++ means >150%) | > 100 | +++ (+++ means >15-30) | 30 to 100 | +++ (+++ means >15-30) | < 6 | 
11 | C[C@H](OC(=O)/C=C/C(=O)O)c1ccc(C(F)(F)F)cc1 [Intermediate 19, (S,E)-4-oxo-4-(1-(4-(trifluoromethyl)phenyl)ethoxy)but-2-enoic acid] |  |  |  |  |  |  |  |  |  |  | 6 to 30 | < 23 | +++ (+++ means >114-150%) | < 23 | ++++ (++++ means >150%) | > 100 | ++++ (++++ means 5-15) | 5 to 29 | ++ (++ means >30-110) | 6 to 30 | 
12 | C[C@@H](OC(=O)/C=C/C(=O)O)c1ccc(C(F)(F)F)cc1 [Intermediate 20, (R,E)-4-oxo-4-(1-(4-(trifluoromethyl)phenyl)ethoxy)but-2-enoic acid] |  |  |  |  |  |  |  |  |  |  | 6 to 30 | 23 to 48.4 | + (+ means >50-<87%) | < 23 | +++ (+++ means >114-150%) | > 100 | ++++ (++++ means 5-15) | 30 to 100 | +++ (+++ means >15-30) | 6 to 30 | 
13 | O=C(O)/C=C/C(=O)OC1(c2cc(Cl)cc(OC(F)(F)F)c2)CCC1 [Intermediate 41, (E)-4-(1-(3-chloro-5-(trifluoromethoxy)phenyl)cyclobutoxy)-4-oxobut-2-enoic acid] |  |  |  |  |  |  |  |  |  |  | 6 to 30 |  |  |  |  | > 100 | ++++ (++++ means 5-15) | 30 to 100 | ++ (++ means >30-110) | 6 to 30 | 
